Data from ChEMBL document CHEMBL4765299 (Eur J Med Chem, 2020).
Active and inactive are the calls of the source. No cut-off for these calls is given here.

Experiments:
[1] = against C against y against t against o against t against o against x against i against c against i against t against y against a against g against a against i against n against s against t against h against u against m against a against n against H against F against L against - against 1 against c against e against l against l against s against a against s against s against e against s against s against e against d against a against s against r against e against d against u against c against t against i against o against n against i against n against c against e against l against l against v against i against a against b against i against l against i against t against y against m against e against a against s against u against r against e against d against a against f against t against e against r against 7 against 2 against h against r against s against b against y against M against T against T against a against s against s against a against y against; format: ADME, tissue-based; conditions: Homo sapiens, HFL1
K562 [2] = experiment: Induction of mitochondrial membrane potential depolarization in human K562 cells assessed proportion of cells with collapsed MMP at 10 nM measured after 48 hrs by JC-1 staining based flow cytometry (reference value: 1.57%); format: functional
HepG2 = experiment: Antiproliferative against human HepG2 cells assessed as reduction in cell viability measured after 72 hrs by MTT assay; format: functional, cell-based; conditions: HepG2, 72 h
K562 [3] = experiment: Induction of cell cycle arrest in human K562 cells assessed as accumulation at S phase at 5 nM incubated for 48 hrs by propidium iodide/RNase staining based flow cytometry (reference value: 53.48%); format: functional
H22 [4] = experiment: Anti-tumor activity against mouse H22 cells allografted in ICR mice assessed as reduction in tumor weight at 30 mg/kg, iv administered daily for 21 days; format: functional; conditions: 504 h, time 21 day
H22 [5] = experiment: Antiproliferative activity against mouse H22 cells assessed as inhibition of cell growth by MTT assay; format: functional, cell-based
HUVEC [6] = experiment: Anti-angiogenesis activity in HUVEC assessed as inhibition of capillary-like tube formation incubated for 6 hrs by Matrigel-based optical microscopy; format: functional, cell-based; conditions: Homo sapiens, dose 5-20 nM
K562 [7] = experiment: Induction of mitochondrial membrane potential depolarization in human K562 cells assessed proportion of cells with intact MMP at 5 nM measured after 48 hrs by JC-1 staining based flow cytometry (reference value: 98.12%); format: functional
[8] = against A against n against t against i against p against r against o against l against i against f against e against r against a against t against i against v against e against a against c against t against i against v against i against t against y against a against g against a against i against n against s against t against h against u against m against a against n against H against C against T against - against 8 against c against e against l against l against s against a against s against s against e against s against s against e against d against a against s against r against e against d against u against c against t against i against o against n against i against n against c against e against l against l against v against i against a against b against i against l against i against t against y against m against e against a against s against u against r against e against d against a against f against t against e against r against 7 against 2 against h against r against s against b against y against M against T against T against a against s against s against a against y against; format: functional, tissue-based, Homo sapiens; conditions: hct-8
K562 [9] = experiment: Anti-microtubule activity in human K562 cells assessed as disruption of microtubule network in cytoplasm incubated for 24 hrs by immunofluorescence assay; format: functional, cell-based; conditions: dose 5-20 nM
K562 [10] = experiment: Induction of mitochondrial membrane potential depolarization in human K562 cells measured after 48 hrs by JC-1 staining based flow cytometry; format: functional, cell-based; conditions: dose 5-20 nM
K562 [11] = experiment: Induction of cell cycle arrest in human K562 cells assessed as accumulation at G2/M phase at 20 nM incubated for 48 hrs by propidium iodide/RNase staining based flow cytometry (reference value: 7.7%); format: functional
K562 [12] = experiment: Induction of apoptosis in human K562 cells assessed as late apoptotic cells at 5 nM incubated for 48 hrs by AnnexinV-FITC/propidium iodide staining based flow cytometry analysis (reference value: 1.78%); format: functional
[13] = Inhibition of porcine brain tubulin polymerization assessed as inhibition of microtubule assembly by measuring decrease in absorbance measured for 60 mins by fluorescence based analysis; format: tissue-based, Sus scrofa
[14] = Toxicity in ICR mouse allografted with mouse H22 cells assessed as lung morphological changes at 30 mg/kg, iv administered daily for 21 days by hematoxylin and eosin staining based microscopic analysis; format: organism-based; conditions: in vivo, 504 h, dose 30 mg/kg/day, time 21 day
K562 [15] = experiment: Induction of apoptosis in human K562 cells assessed as late apoptotic cells at 20 nM incubated for 48 hrs by AnnexinV-FITC/propidium iodide staining based flow cytometry analysis (reference value: 1.78%); format: functional
HUVEC [16] = experiment: Anti-angiogenesis activity in HUVEC assessed as inhibition of capillary-like tube formation at 10 nM incubated for 6 hrs by Matrigel-based optical microscopy; format: functional, cell-based; conditions: Homo sapiens
Sus scrofa = species: Sus scrofa; experiment: Displacement of [3H]colchicine from porcine brain tubulin at 5 uM incubated for 2 hrs by TopCount scintillation counting method relative to control; format: tissue-based
HUVEC [17] = experiment: Anti-angiogenesis activity in HUVEC assessed as inhibition of capillary-like tube formation at 20 nM incubated for 6 hrs by Matrigel-based optical microscopy; format: functional, cell-based; conditions: Homo sapiens
K562 [18] = experiment: Induction of cell cycle arrest in human K562 cells assessed as accumulation at G2/M phase at 5 nM incubated for 48 hrs by propidium iodide/RNase staining based flow cytometry (reference value: 7.7%); format: functional

IC50 [1]: 118 nM | IC50 (HepG2): 19 nM | IC50 [8]: 21 nM | IC50 [13]: 3150 nM | inhibition (Sus scrofa): 79.3%
SMILES: C=C(c1cc(Cl)nc(NC)c1)c1ccc(OC)c(O)c1
Activity (K562 [2]): 20.05% | Activity (K562 [3]): 50.66% | inhibition in vivo at 30 mg/kg/day (H22 [4]): 68.7% | IC50 (H22 [5]): 17 nM | Activity (HUVEC [6]): Dose-dependent effect | Activity (K562 [7]): 86.4% | Activity (K562 [9]): Dose-dependent effect | Activity (K562 [10]): Dose-dependent effect | Activity (K562 [11]): 15.28% | Activity (K562 [12]): 3.86% | Activity [14]: Non-Toxic | Activity (K562 [15]): 18.43% | Activity (HUVEC [16]): Active | Activity (HUVEC [17]): Active | Activity (K562 [18]): 9.4%
